Results reported in the kinase profiling compilation of Christmann-Franck et al. (2016).

What was measured:
Experiment in all cases: KINOMEscan competition binding
Conditions in all cases: compound 1.0 µM
MAPK1 (human) = MAPK1 (human) (UniProt P28482)
PHKG1 (human) = PHKG1 (human) (UniProt Q16816)
WEE2 (human) = WEE2 (human) (UniProt P0C1S8)
RPS6KA4 KD1 (human) = RPS6KA4 KD1 (human) (UniProt O75676)
PRKAA2 (human) = PRKAA2 (human) (UniProt P54646)
MARK1 (human) = MARK1 (human) (UniProt Q9P0L2)
CHUK (human) = CHUK (human) (UniProt O15111)
SRPK1 (human) = SRPK1 (human) (UniProt Q96SB4)
MAPK10 (human) = MAPK10 (human) (UniProt P53779)
[1] = system: RET (human), P07949 [V804M]
GSK3A (human) = GSK3A (human) (UniProt P49840)
PRKACB (human) = PRKACB (human) (UniProt P22694)
AAK1 (human) = AAK1 (human) (UniProt Q2M2I8)
[2] = system: ABL1 (human), P00519 [Y253F]
ROCK1 (human) = ROCK1 (human) (UniProt Q13464)
Sequence of ROCK1 (human) (Q13464 whole entry, looked up): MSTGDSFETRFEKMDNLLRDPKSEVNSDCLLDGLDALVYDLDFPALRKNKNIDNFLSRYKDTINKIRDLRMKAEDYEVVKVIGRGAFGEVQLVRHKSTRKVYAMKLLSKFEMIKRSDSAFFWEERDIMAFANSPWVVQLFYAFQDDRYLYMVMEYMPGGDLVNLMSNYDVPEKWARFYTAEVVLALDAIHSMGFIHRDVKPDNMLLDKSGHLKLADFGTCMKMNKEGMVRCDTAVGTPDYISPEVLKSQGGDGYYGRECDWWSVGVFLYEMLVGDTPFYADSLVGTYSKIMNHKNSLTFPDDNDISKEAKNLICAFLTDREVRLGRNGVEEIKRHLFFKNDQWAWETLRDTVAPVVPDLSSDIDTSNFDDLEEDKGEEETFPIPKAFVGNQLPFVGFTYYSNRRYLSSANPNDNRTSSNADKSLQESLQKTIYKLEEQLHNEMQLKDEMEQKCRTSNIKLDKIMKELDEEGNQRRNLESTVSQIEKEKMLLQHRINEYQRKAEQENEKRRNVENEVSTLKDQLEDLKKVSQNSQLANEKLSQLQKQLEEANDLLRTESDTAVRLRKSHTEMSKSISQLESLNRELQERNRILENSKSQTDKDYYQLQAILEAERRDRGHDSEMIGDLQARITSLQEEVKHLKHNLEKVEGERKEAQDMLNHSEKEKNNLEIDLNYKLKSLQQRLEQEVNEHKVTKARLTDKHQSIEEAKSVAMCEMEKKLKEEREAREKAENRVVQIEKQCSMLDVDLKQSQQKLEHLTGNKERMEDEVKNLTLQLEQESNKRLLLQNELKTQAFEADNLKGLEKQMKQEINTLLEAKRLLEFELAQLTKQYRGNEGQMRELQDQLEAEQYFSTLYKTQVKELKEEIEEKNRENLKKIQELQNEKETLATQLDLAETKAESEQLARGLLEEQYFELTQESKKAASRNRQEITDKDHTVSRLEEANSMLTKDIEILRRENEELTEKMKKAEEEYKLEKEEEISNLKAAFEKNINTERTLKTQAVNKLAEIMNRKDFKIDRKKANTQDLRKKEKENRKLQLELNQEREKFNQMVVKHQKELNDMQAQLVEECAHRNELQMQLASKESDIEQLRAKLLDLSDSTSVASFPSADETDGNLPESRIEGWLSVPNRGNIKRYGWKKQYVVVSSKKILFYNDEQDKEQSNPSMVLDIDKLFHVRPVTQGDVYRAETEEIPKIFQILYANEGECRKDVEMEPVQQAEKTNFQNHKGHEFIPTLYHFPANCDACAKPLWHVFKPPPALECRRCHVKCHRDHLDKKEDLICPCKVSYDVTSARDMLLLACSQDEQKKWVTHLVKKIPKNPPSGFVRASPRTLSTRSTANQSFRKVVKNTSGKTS

[3] = molecular target: JAK2 JH1 catalytic (human) (UniProt O60674)
Sequence of JAK2 JH1 catalytic (human) (O60674 whole entry, looked up): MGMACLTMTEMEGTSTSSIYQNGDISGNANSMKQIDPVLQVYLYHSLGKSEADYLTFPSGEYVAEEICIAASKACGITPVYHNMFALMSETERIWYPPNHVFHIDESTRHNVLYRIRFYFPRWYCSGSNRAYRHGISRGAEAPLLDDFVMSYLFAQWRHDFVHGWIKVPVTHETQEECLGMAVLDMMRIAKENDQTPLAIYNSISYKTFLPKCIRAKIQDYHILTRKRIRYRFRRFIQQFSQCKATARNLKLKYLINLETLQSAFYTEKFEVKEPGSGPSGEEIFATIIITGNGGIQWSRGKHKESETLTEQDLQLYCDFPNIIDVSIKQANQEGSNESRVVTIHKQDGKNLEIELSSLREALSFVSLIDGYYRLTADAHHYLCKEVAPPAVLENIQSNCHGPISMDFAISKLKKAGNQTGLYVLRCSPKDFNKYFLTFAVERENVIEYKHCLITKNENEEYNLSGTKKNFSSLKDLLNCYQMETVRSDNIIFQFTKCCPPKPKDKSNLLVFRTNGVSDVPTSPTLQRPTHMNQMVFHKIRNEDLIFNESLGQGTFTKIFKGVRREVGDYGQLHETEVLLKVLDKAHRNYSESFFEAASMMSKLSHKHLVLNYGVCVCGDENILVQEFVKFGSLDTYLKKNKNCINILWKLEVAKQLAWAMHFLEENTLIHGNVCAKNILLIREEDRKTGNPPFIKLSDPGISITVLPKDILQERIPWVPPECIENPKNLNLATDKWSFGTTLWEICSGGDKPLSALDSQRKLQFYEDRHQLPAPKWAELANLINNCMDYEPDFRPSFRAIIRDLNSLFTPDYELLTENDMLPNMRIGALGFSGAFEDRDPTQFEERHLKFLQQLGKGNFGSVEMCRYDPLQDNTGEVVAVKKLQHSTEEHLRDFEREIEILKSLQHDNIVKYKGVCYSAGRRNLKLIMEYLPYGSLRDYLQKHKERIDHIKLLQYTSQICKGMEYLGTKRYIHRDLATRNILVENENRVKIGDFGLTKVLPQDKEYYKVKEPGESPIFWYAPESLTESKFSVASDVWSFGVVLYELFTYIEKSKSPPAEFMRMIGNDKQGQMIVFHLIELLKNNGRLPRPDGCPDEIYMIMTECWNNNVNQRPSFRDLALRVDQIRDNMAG

BRSK2 (human) = BRSK2 (human) (UniProt Q8IWQ3)
PDPK1 (human) = PDPK1 (human) (UniProt O15530)
SYK (human) = SYK (human) (UniProt P43405)
EPHA1 (human) = EPHA1 (human) (UniProt P21709)
FGR (human) = FGR (human) (UniProt P09769)
EPHA7 (human) = EPHA7 (human) (UniProt Q15375)
PAK3 (human) = PAK3 (human) (UniProt O75914)
TAOK3 (human) = TAOK3 (human) (UniProt Q9H2K8)
IRAK3 (human) = IRAK3 (human) (UniProt Q9Y616)
CDK7 (human) = CDK7 (human) (UniProt P50613)
ERBB2 (human) = ERBB2 (human) (UniProt P04626)
Sequence of ERBB2 (human) (P04626 whole entry, looked up): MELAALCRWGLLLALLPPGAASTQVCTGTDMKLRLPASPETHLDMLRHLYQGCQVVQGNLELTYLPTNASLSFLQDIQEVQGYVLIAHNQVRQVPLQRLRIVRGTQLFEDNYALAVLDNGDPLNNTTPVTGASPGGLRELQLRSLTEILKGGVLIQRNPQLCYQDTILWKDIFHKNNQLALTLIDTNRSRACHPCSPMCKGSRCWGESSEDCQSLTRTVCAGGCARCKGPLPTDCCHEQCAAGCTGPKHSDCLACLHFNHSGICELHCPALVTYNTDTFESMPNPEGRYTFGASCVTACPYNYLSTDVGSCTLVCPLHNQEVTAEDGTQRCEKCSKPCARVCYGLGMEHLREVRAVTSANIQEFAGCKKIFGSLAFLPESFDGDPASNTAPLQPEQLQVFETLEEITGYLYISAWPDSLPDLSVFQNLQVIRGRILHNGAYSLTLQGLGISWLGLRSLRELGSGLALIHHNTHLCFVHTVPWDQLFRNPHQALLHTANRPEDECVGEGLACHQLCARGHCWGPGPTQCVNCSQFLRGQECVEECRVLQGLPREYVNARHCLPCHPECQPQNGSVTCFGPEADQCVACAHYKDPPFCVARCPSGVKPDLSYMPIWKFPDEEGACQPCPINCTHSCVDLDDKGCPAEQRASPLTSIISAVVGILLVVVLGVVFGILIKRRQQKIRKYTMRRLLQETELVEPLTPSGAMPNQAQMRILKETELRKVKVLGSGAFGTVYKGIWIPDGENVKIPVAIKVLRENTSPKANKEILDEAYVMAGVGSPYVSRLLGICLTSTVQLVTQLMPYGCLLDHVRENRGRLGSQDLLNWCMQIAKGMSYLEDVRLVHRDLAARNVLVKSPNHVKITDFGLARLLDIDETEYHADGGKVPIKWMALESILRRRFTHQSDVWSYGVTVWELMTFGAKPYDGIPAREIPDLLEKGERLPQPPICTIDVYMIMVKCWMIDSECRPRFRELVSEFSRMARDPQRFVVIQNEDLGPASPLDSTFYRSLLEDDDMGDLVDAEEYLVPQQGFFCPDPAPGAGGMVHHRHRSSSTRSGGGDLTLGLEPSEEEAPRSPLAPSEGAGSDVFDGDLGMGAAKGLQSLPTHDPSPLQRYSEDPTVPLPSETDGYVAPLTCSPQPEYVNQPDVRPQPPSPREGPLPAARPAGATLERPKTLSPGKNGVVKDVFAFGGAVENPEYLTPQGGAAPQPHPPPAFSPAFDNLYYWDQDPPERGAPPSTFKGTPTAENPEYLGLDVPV

CaMK1 (human) = CaMK1 (human) (UniProt Q14012)
LYN (human) = LYN (human) (UniProt P07948)
FGFR4 (human) = FGFR4 (human) (UniProt P22455)
Sequence of FGFR4 (human) (P22455 whole entry, looked up): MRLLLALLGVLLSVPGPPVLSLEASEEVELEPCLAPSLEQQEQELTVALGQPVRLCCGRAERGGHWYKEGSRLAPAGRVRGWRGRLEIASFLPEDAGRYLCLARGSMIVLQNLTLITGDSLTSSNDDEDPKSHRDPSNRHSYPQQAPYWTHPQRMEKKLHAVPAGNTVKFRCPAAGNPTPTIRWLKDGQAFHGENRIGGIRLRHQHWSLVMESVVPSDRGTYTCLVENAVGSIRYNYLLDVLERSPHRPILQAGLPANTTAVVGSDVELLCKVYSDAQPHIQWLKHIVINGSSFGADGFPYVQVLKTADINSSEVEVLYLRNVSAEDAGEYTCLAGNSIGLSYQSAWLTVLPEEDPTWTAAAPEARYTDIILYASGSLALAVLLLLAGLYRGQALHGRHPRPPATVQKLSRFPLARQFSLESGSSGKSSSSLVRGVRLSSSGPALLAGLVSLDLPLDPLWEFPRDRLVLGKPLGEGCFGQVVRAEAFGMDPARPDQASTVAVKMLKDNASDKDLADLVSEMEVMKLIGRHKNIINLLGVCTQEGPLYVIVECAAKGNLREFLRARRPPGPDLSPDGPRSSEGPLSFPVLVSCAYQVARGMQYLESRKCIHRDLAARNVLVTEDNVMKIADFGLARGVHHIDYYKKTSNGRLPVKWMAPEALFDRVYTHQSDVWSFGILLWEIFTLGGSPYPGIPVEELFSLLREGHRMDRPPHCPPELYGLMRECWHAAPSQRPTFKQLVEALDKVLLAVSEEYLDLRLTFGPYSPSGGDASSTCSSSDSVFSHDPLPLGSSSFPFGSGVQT

IKBKE (human) = IKBKE (human) (UniProt Q14164)
CLK1 (human) = CLK1 (human) (UniProt P49759)
Sequence of CLK1 (human) (P49759 whole entry, looked up): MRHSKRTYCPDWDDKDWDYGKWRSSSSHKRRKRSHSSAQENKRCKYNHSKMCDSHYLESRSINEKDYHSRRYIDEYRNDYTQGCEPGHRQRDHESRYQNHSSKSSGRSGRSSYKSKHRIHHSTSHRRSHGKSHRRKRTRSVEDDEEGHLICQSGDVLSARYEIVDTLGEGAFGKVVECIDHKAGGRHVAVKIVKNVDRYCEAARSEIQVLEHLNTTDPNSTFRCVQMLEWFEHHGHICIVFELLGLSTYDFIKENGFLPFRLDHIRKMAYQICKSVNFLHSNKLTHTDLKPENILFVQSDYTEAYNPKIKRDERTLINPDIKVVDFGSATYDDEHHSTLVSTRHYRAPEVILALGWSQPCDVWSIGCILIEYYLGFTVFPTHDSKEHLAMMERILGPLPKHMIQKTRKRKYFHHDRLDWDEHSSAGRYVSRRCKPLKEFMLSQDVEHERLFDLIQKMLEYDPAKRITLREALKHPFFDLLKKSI

MAPK9 (human) = MAPK9 (human) (UniProt P45984)
[4] = system: EGFR (human), P00533 [752-759 del]
PIM1 (human) = PIM1 (human) (UniProt P11309)
MYLK2 (human) = MYLK2 (human) (UniProt Q9H1R3)
PLK4 (human) = PLK4 (human) (UniProt O00444)
PRKCH (human) = PRKCH (human) (UniProt P24723)
[5] = system: MET (human), P08581 [M1250T]
STK38 (human) = STK38 (human) (UniProt Q15208)

inhibition of binding (MAPK1 (human)): 0%
inhibition of binding (PHKG1 (human)): 11%
inhibition of binding (WEE2 (human)): 0%
inhibition of binding (RPS6KA4 KD1 (human)): 4%
inhibition of binding (PRKAA2 (human)): 0%
inhibition of binding (MARK1 (human)): 0%
inhibition of binding (CHUK (human)): 29%
inhibition of binding (SRPK1 (human)): 0%
inhibition of binding (MAPK10 (human)): 17%
inhibition of binding [1]: 14%
inhibition of binding (GSK3A (human)): 42%
inhibition of binding (PRKACB (human)): 4%
inhibition of binding (AAK1 (human)): 0%
inhibition of binding [2]: 0%
inhibition of binding (ROCK1 (human)): 0%
inhibition of binding [3]: 12%
inhibition of binding (BRSK2 (human)): 0%
inhibition of binding (PDPK1 (human)): 0%
inhibition of binding (SYK (human)): 0%
inhibition of binding (EPHA1 (human)): 2%
inhibition of binding (FGR (human)): 0%
inhibition of binding (EPHA7 (human)): 0%
inhibition of binding (PAK3 (human)): 0%
inhibition of binding (TAOK3 (human)): 10%
inhibition of binding (IRAK3 (human)): 0%
inhibition of binding (CDK7 (human)): 0%
inhibition of binding (ERBB2 (human)): 24%
inhibition of binding (CaMK1 (human)): 4%
inhibition of binding (LYN (human)): 0%
inhibition of binding (FGFR4 (human)): 0%
inhibition of binding (IKBKE (human)): 0%
inhibition of binding (CLK1 (human)): 58%
inhibition of binding (MAPK9 (human)): 0%
inhibition of binding [4]: 0%
inhibition of binding (PIM1 (human)): 2%
inhibition of binding (MYLK2 (human)): 5%
inhibition of binding (PLK4 (human)): 1%
inhibition of binding (PRKCH (human)): 0%
inhibition of binding [5]: 20%
inhibition of binding (STK38 (human)): 1%
Structure (SMILES): Nc1cc(C(F)(F)F)c(-c2cc(N3CCOCC3)nc(N3CCOCC3)n2)cn1
